Test results published in ChEMBL document CHEMBL4196029, “New MD2 inhibitors derived from curcumin with improved anti-inflammatory activity” (Eur J Med Chem, 2018).
Active and inactive are the calls of the source. No cut-off for these calls is given here.

Columns and labels:
[1] = Chemical stability in pH 7.4 phosphate buffer at 20 uM measured at 5 mins time intervals for 25 mins by UV absorbance spectroscopic method; format: physicochemical; conditions: pH 7.4, 25 min
Peritoneal macrophage [2] = assay: Anti-inflammatory activity in C57BL/6 mouse primary peritoneal macrophages assessed as inhibition of LPS-induced IL-6 secretion at 10 uM preincubated for 30 mins followed by LPS addition measured after 24 hrs by ELISA relative to control; format: functional; conditions: C57BL/6, Peritoneal macrophage
Peritoneal macrophage [3] = assay: Anti-inflammatory activity in C57BL/6 mouse primary peritoneal macrophages assessed as inhibition of LPS-induced TNFalpha secretion at 10 uM preincubated for 30 mins followed by LPS addition measured after 24 hrs by ELISA relative to control; format: functional; conditions: C57BL/6, Peritoneal macrophage
Peritoneal macrophage [4] = assay: Anti-inflammatory activity in C57BL/6 mouse primary peritoneal macrophages assessed as inhibition of LPS-induced IL-6 secretion at 1 to 10 uM preincubated for 30 mins followed by LPS addition measured after 24 hrs by ELISA; format: functional, cell-based
Peritoneal macrophage [5] = assay: Anti-inflammatory activity in C57BL/6 mouse primary peritoneal macrophages assessed as inhibition of LPS-induced IL-6 secretion at 2.5 uM preincubated for 30 mins followed by LPS addition measured after 24 hrs by ELISA relative to control; format: functional; conditions: C57BL/6, Peritoneal macrophage
Peritoneal macrophage [6] = assay: Anti-inflammatory activity in C57BL/6 mouse primary peritoneal macrophages assessed as inhibition of LPS-induced TNFalpha secretion at 5 uM preincubated for 30 mins followed by LPS addition measured after 24 hrs by ELISA relative to control; format: functional; conditions: C57BL/6, Peritoneal macrophage
Peritoneal macrophage [7] = assay: Inhibition of LPS-induced IL-6 mRNA expression in C57BL/6 mouse primary peritoneal macrophages at 10 uM preincubated for 30 mins followed by LPS addition measured after 24 hrs by qRT-PCR analysis; format: functional, cell-based
Peritoneal macrophage [8] = assay: Inhibition of LPS-induced IL-1beta mRNA expression in C57BL/6 mouse primary peritoneal macrophages at 10 uM preincubated for 30 mins followed by LPS addition measured after 24 hrs by qRT-PCR analysis; format: functional, cell-based
Peritoneal macrophage [9] = assay: Inhibition of LPS-induced COX2 mRNA expression in C57BL/6 mouse primary peritoneal macrophages at 10 uM preincubated for 30 mins followed by LPS addition measured after 24 hrs by qRT-PCR analysis; format: functional, cell-based
Rattus norvegicus [10] = assay: (§1) Anti-inflammatory activity in Sprague-Dawley rat model of LPS-induced acute lung injury assessed as reduction in morphological changes in lungs at 20 mg/kg, po administered daily for 1 week followed by LPS addition at 30 mins post last dose measured after 6 hrs by hematoxylin and eosin staining based light microscopic assay; format: functional, organism-based
Rattus norvegicus [11] = assay: as §1, with “leukocytic extravasation” for “morphological changes”, “lungs by measuring number of cells in BALF” for “lungs”, “Wright-Giemsa” for “hematoxylin and eosin”; format: functional, organism-based
Rattus norvegicus [12] = assay: Anti-inflammatory activity in Sprague-Dawley rat model of LPS-induced acute lung injury assessed as reduction in neutrophil extravasation in lungs by measuring tissue myeloperoxidase activity at 20 mg/kg, po administered daily for 1 week followed by LPS addition at 30 mins post last dose measured after 6 hrs by spectrophotometric method; format: functional; design: scale not given: the % may be the effect or the level left
Rattus norvegicus [13] = assay: Anti-inflammatory activity in Sprague-Dawley rat model of LPS-induced acute lung injury assessed as reduction in TNFalpha mRNA level in lungs at 20 mg/kg, po administered daily for 1 week followed by LPS addition at 30 mins post last dose measured after 6 hrs by qRT-PCR method; format: functional, organism-based
Rattus norvegicus [14] = assay: Anti-inflammatory activity in Sprague-Dawley rat model of LPS-induced acute lung injury assessed as reduction in IL-6 mRNA level in lungs at 20 mg/kg, po administered daily for 1 week followed by LPS addition at 30 mins post last dose measured after 6 hrs by qRT-PCR method; format: functional, organism-based
Rattus norvegicus [15] = assay: Anti-inflammatory activity in Sprague-Dawley rat model of LPS-induced acute lung injury assessed as reduction in MCP1 mRNA level in lungs at 20 mg/kg, po administered daily for 1 week followed by LPS addition at 30 mins post last dose measured after 6 hrs by qRT-PCR method; format: functional, organism-based
RAW264.7 [16] = assay: Binding affinity to MD2 in […] cells assessed as inhibition of LPS-induced TLR4-MD2 complex dimerization at 10 uM by co-immunoprecipitation assay; format: cell-based
RAW264.7 [17] = assay: Inhibition of MD2 in […] cells harboring NF-kB-luc assessed as inhibition of LPS-induced TLR4 activation-mediated NF-kB transcriptional activity at 2.5 uM preincubated with cells followed by LPS addition measured after 6 hrs by luciferase reporter gene assay; format: cell-based
[18] = target: Mitogen-activated protein kinase 1 (Homo sapiens) (UniProt P28482); assay: Inhibition of recombinant human full length N-terminal GST-tagged ERK2 (1 to 360 end residues) expressed in Escherichia coli at 1 uM after 1 hr by caliper mobility shift assay relative to control
[19] = target: Mitogen-activated protein kinase 1 (Homo sapiens) (UniProt P28482); assay: Inhibition of recombinant human full length N-terminal GST-tagged ERK2 (1 to 360 end residues) expressed in Escherichia coli at 0.1 uM after 1 hr by caliper mobility shift assay relative to control
[20] = target: Interleukin-1 receptor-associated kinase 1 (Homo sapiens) (UniProt P51617); assay: Inhibition of recombinant human N-terminal GST-tagged IRAK1 (194 to 712 residues) expressed in baculovirus expression system at 10 uM after 1 hr by caliper mobility shift assay relative to control
[21] = target: Interleukin-1 receptor-associated kinase 1 (Homo sapiens) (UniProt P51617); assay: Inhibition of recombinant human N-terminal GST-tagged IRAK1 (194 to 712 residues) expressed in baculovirus expression system at 1 uM after 1 hr by caliper mobility shift assay relative to control
[22] = target: T1, Inhibitor of nuclear factor kappa-B kinase subunit beta (Homo sapiens) (UniProt O14920); assay: Inhibition of recombinant human N-terminal His-tagged IKKbeta (1 to 662 residues) expressed in baculovirus expression system at 0.1 uM after 1 hr by caliper mobility shift assay relative to control
T1 sequence (whole entry): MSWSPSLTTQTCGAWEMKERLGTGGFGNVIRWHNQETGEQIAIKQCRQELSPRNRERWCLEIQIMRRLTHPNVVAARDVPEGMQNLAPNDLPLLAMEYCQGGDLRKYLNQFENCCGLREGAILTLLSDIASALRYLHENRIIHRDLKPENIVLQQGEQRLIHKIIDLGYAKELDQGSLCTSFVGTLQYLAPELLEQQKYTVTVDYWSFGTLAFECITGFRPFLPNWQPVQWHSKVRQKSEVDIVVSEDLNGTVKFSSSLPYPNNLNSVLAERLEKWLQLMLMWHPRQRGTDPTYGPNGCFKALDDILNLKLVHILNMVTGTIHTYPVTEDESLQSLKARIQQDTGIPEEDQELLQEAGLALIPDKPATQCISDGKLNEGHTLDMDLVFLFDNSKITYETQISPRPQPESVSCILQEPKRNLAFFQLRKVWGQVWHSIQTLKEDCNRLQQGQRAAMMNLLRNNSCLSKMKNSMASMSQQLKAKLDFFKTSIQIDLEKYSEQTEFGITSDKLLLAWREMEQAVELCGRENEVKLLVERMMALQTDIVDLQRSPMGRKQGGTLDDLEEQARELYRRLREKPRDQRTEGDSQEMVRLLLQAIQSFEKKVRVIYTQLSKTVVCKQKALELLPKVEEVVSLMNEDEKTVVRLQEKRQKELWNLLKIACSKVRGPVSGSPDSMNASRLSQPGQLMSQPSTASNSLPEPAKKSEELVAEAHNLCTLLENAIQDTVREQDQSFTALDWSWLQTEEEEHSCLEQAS

Mitogen-activated protein kinase 1 (Homo sapiens), sequence (P28482 whole entry, the tested form may be a part): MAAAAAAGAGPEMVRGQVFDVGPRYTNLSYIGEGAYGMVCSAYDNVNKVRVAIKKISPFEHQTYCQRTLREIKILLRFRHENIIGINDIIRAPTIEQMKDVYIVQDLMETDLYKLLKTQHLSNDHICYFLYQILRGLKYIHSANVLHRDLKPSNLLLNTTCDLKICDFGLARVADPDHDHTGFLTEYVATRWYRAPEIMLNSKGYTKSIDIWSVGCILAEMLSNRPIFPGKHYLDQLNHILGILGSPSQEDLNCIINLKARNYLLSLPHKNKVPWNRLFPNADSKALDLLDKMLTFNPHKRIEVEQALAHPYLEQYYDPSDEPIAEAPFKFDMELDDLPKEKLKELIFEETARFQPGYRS
Interleukin-1 receptor-associated kinase 1 (Homo sapiens), sequence (P51617 whole entry, looked up, the tested form may be a part): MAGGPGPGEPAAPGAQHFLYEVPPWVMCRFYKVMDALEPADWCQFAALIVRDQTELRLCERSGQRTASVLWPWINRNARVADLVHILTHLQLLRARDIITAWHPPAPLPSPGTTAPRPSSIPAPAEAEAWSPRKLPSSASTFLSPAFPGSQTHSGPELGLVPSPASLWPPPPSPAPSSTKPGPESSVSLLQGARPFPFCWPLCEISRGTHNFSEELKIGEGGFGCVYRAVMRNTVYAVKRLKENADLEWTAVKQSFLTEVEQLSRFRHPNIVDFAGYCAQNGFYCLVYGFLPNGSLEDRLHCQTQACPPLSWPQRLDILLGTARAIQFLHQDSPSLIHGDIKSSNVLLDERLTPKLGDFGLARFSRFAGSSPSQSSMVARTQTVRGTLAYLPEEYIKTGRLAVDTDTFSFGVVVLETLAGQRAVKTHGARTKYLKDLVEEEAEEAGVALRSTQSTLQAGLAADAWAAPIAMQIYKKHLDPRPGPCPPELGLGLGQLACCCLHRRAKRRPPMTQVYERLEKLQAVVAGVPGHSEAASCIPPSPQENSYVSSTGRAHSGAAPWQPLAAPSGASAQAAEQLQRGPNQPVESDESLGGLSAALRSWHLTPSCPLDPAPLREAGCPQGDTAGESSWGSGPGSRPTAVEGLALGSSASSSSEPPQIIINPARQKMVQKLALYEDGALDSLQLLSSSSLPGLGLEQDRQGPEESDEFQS

Structure (SMILES) | Stability [1] | inhibition at 10 µM (Peritoneal macrophage [2]) [%] | inhibition at 10 µM (Peritoneal macrophage [3]) [%] | inhibition (Peritoneal macrophage [4]) | inhibition at 2.5 µM (Peritoneal macrophage [5]) [%] | inhibition at 5 µM (Peritoneal macrophage [6]) [%] | inhibition (Peritoneal macrophage [7]) | inhibition (Peritoneal macrophage [8]) | inhibition (Peritoneal macrophage [9]) | Activity (Rattus norvegicus [10]) | Activity (Rattus norvegicus [11]) | Activity (Rattus norvegicus [12]) [%] | Activity (Rattus norvegicus [13]) | Activity (Rattus norvegicus [14]) | Activity (Rattus norvegicus [15]) | inhibition (RAW264.7 [16]) | inhibition (RAW264.7 [17]) | inhibition [18] [%] | inhibition [19] [%] | inhibition [20] [%] | also measured
COc1cc(/C=C2\COC/C(=C\c3cc(OC)c(OC)c(OC)c3)C2=O)cc(OC)c1OC | Stable | > 90 | > 90 | Active | > 50 | > 50 | Active | Active | Active | Active | Active | 40 | Active | Active | Active | Active | Active | 10.4 | 21.3 | 3.6 | inhibition [21]: 8.7%; inhibition [22]: 15.7%
COc1cc(/C=C2\CN(C)C/C(=C\c3cc(OC)c(OC)c(OC)c3)C2=O)cc(OC)c1OC | Stable | > 90 | > 90 | Active | > 50 | > 50 | Active | Active | Active | Active | Active | 40 | Active | Active | Active | Active | Active | 13.3 | 11.7 | 0.5 | inhibition [21]: 8.7%; inhibition [22]: 21.1%
